13 compounds from PubChem BioAssay (NCI) can be followed below.

Each structure is given as a SMILES string.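 Where inhibition never reached the appropriate level, the endpoint shown equals the highest concentration tested. Otherwise, values were interpolated linearly from a five-concentration, 48-hour dose response in 96-well plates. The concentration for 50% growth inhibition is given as GI50. Definition used: TGI = concentration required for complete inhibition of growth.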

What all share (test): NCI-60 cell line screen, 48 h
In test [1] the test system is CAKI-1 renal.
The test system of test [2] is SNB-78 CNS.
The test system of test [3] is HOP-62 NSCLC.
Test [4] concerns M19-MEL melanoma.
Test [5] relates to RPMI-8226 leukemia.
The test system of test [6] is SK-OV-3 ovarian.
In test [7] the test system is NCI-H226 lung.
For test [8], the system named is MDA-MB-231 breast.
Test [9] has as its system RXF 393 renal.
Test [10] concerns HCT-15 colon.
Test [11] has as its system NCI/ADR-RES ovarian.

`COc1cc(O)c2c(c1)C(=O)c1cc(C)cc(O)c1C2=O`: the TGI in test [1], in test [2], in test [3], in [4], in test [5] and in [6] was over 100 µM each time. Further, the TGI in [7] is over 100 µM.

As to `Cn1c(Sc2ccc(-c3cccnc3)n2C)ccc1-c1cccnc1`, the TGI in test [1] came to 36.5 µM; in test [8] it was 37.1 µM; in test [9] it was 36.3 µM; in [10], 35.6 µM; in test [3] it was 36 µM; in [5] it was 23.4 µM. The TGI was 71.3 µM in test [11], 60.9 µM in test [6] and 51.1 µM in test [7].

Consider `Cc1cc(=O)oc2c1cc(OCC(=O)OCCN1CCCCC1)c1occ(C)c12`, for which the TGI in [1], in test [2], in test [9], in [10], in [4] and in [5] was over 100 µM throughout. Besides, the TGI in test [7] was over 100 µM.

For `NC(=O)Nc1cc(O)ccc1N=Nc1ccc(S(=O)(=O)Nc2ccccn2)cc1`, the TGI in test [1], in test [2], in test [10], in test [3], in test [4] and in [5] was over 100 µM in each case. Also, the TGI in [6] was over 100 µM.

On to `CC(CO)(CO)Nc1ncnc2ccccc12`, for which the TGI in [1], in [8], in test [9], in [10], in test [3] and in test [11] was over 100 µM each time. The TGI in [7] is over 100 µM.

`CCOC(=O)NC`: the TGI in test [1], in test [8], in test [9], in test [10], in test [3] and in test [5] was over 100 µM throughout. In addition, the TGI in test [11] and in test [6] was over 100 µM in each case.

With `Nc1nnc(N)n1NC(=O)C(=O)Nc1ccc([N+](=O)[O-])cc1`, the TGI in test [1], in test [2], in [9], in test [10], in [3] and in [4] was over 100 µM each time. For the same compound, the TGI in [5], in test [6] and in test [7] was over 100 µM throughout.

Regarding `c1ccc2sc(SCN(C3CCCCC3)C3CCCCC3)nc2c1`, the TGI in test [1], in test [8], in [9], in test [10], in [3] and in test [11] was over 100 µM each time. Besides, the TGI in test [7] was over 100 µM.

On to `O=C(O)C1=NNC(C(=O)O)=NN1`, for which the TGI in [1], in test [2], in [9], in test [10], in test [4] and in test [5] was over 100 µM throughout. The TGI in test [6] and in test [7] was over 100 µM throughout.

For the compound `CCCCCCCCCCCCCCCCOCC(COP(=O)([O-])OCC[n+]1ccc(N(C)C)cc1)OCC` (centres undefined), the TGI in test [8] is 22.5 µM; in test [9], 31.7 µM; in test [10], 32.5 µM; in test [3] it was 26.3 µM; in [5], 17.1 µM; in [7], 33.7 µM.

For the compound `COc1c(Cl)cc(S(=O)O)cc1Cl`, the TGI in test [2], in test [9], in [3], in [4] and in test [6] was over 100 µM in each case.

On to `Fc1ccc(-c2nnc3sc(COc4ccccc4Cl)nn23)cc1Cl`, for which the GI50 was 76.6 µM in [1]; 44.5 µM in test [8]; 38.1 µM in [9]; 17.7 µM in [10]; 49.5 µM in [3]; 40.8 µM in test [11]. In addition, the GI50 was 93.3 µM in [6] and 22.8 µM in test [7]. The TGI in [1] is over 100 µM; in [8] it was over 100 µM; in test [9], 69.2 µM; in [10] it was 48.7 µM; in test [3], over 100 µM; in test [11] it was over 100 µM. The TGI in test [6] is over 100 µM; in [7] it was 57.1 µM.

Consider `O=C1c2ccccc2C(=O)c2c1ccc(C(=O)O)c2-c1ccc2ccccc2c1`, for which the TGI was over 100 µM in [1]; 73.9 µM in [8]; 56.6 µM in test [10]; over 100 µM in test [3]; 83.8 µM in test [5]; over 100 µM in test [11]. Also, the results for the TGI in [6] and in [7] were over 100 µM and 79.6 µM, respectively.
